Data: PubChem BioAssay AID248 (DTP/NCI, 2004)
Several values for one entry are separate records, joined by “and”; a condition that tells them apart may be missing. Equal values may be shown once. Toxic doses and inconclusive results are not listed. Cut-off read from the data, not from the text of the source: active = T/C of 150% or more; inactive = T/C below 125%.

Tested on: L1210 leukemia ip in BDF1 mice, survival T/C
Experiment: NCI In Vivo Anticancer Drug Screen. Data for tumor model L1210 Leukemia (intraperitoneal) in B6D2F1 (BDF1) mice
Details: endpoint: mean survival time, higher = longer survival
Procedure, shortened: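 Transplantable tumor model; survival measured in treated vs vehicle control mice. Value = treated/control.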

[1] = dose: 100.0 mg/kg/injection, schedule: Q01DX001 (ip), vehicle: saline
[2] = dose: 200.0 mg/kg/injection, schedule: Q01DX001 (ip), vehicle: saline
[3] = dose: 400.0 mg/kg/injection, schedule: Q01DX001 (ip), vehicle: saline
[4] = dose: 100.0 mg/kg/injection, schedule: Q01DX001 (ip), vehicle: Klucel (hydroxypropylcellulose) (HPC)
[5] = dose: 200.0 mg/kg/injection, schedule: Q01DX001 (ip), vehicle: Klucel (hydroxypropylcellulose) (HPC)
[6] = dose: 400.0 mg/kg/injection, schedule: Q01DX001 (ip), vehicle: Klucel (hydroxypropylcellulose) (HPC)
[7] = dose: 25.0 mg/kg/injection, schedule: Q01DX009 (ip), vehicle: saline
[8] = dose: 50.0 mg/kg/injection, schedule: Q01DX009 (ip), vehicle: saline
[9] = dose: 100.0 mg/kg/injection, schedule: Q01DX009 (ip), vehicle: Klucel (hydroxypropylcellulose) (HPC)
[10] = dose: 100.0 mg/kg/injection, schedule: Q04DX002 (ip), vehicle: Klucel (hydroxypropylcellulose) (HPC)
[11] = dose: 100.0 mg/kg/injection, schedule: Q04DX003 (ip), vehicle: Klucel (hydroxypropylcellulose) (HPC)
[12] = dose: 200.0 mg/kg/injection, schedule: Q01DX009 (ip), vehicle: Klucel (hydroxypropylcellulose) (HPC)
[13] = dose: 200.0 mg/kg/injection, schedule: Q04DX002 (ip), vehicle: Klucel (hydroxypropylcellulose) (HPC)
[14] = dose: 200.0 mg/kg/injection, schedule: Q04DX003 (ip), vehicle: Klucel (hydroxypropylcellulose) (HPC)
[15] = dose: 400.0 mg/kg/injection, schedule: Q01DX009 (ip), vehicle: Klucel (hydroxypropylcellulose) (HPC)
[16] = dose: 400.0 mg/kg/injection, schedule: Q04DX002 (ip), vehicle: Klucel (hydroxypropylcellulose) (HPC)
[17] = dose: 400.0 mg/kg/injection, schedule: Q04DX003 (ip), vehicle: Klucel (hydroxypropylcellulose) (HPC)
[18] = dose: 100.0 mg/kg/injection, schedule: Q01DX009 (ip), vehicle: other
[19] = dose: 100.0 mg/kg/injection, schedule: Q01DX001 (ip), vehicle: saline with Tween-80
[20] = dose: 100.0 mg/kg/injection, schedule: Q01DX009 (ip), vehicle: saline with Tween-80
[21] = dose: 100.0 mg/kg/injection, schedule: Q04DX002 (ip), vehicle: saline with Tween-80
[22] = dose: 200.0 mg/kg/injection, schedule: Q01DX001 (ip), vehicle: saline with Tween-80
[23] = dose: 200.0 mg/kg/injection, schedule: Q01DX009 (ip), vehicle: saline with Tween-80
[24] = dose: 200.0 mg/kg/injection, schedule: Q04DX002 (ip), vehicle: saline with Tween-80
[25] = dose: 400.0 mg/kg/injection, schedule: Q01DX001 (ip), vehicle: saline with Tween-80
[26] = dose: 400.0 mg/kg/injection, schedule: Q01DX009 (ip), vehicle: saline with Tween-80
[27] = dose: 400.0 mg/kg/injection, schedule: Q04DX002 (ip), vehicle: saline with Tween-80

Measured: T/C

C/C(CC(O)(C(F)(F)F)C(F)(F)F)=N\Nc1ccccc1
inactive: dose: 100.0 mg/kg/injection, schedule: Q04DX003 (ip), vehicle: other 102 % of control | dose: 200.0 mg/kg/injection, schedule: Q04DX003 (ip), vehicle: other 97 % of control | dose: 400.0 mg/kg/injection, schedule: Q04DX003 (ip), vehicle: other 106 % of control

Cc1cc(C)nc(/N=C(/N)Nc2ccc(S(=O)(=O)NC(=O)Nc3ccccc3)cc2)n1
inactive: [1] 92 % of control | [2] 98 % of control | [3] 102 % of control

CC1(C)C2=CCCCC2CC/C1=N\O (configuration not stated)
inactive: [4] 105 % of control | [5] 105 % of control | [6] 100 % of control

COC(=O)CCC1CCC(=O)C1 (configuration not stated)
inactive: dose: 37.5 mg/kg/injection, schedule: Q04DX002 (ip), vehicle: saline with Tween-80 95 % of control | dose: 75.0 mg/kg/injection, schedule: Q04DX002 (ip), vehicle: saline with Tween-80 95 % of control | dose: 150.0 mg/kg/injection, schedule: Q04DX002 (ip), vehicle: saline with Tween-80 98 % of control | dose: 300.0 mg/kg/injection, schedule: Q04DX002 (ip), vehicle: saline with Tween-80 95 % of control

CC1(C)SC2C(NC(=O)C(C(=O)O)c3ccccc3)C(=O)N2C1C(=O)O (configuration not stated)
inactive: [7] 103 % of control | dose: 50.0 mg/kg/injection, schedule: Q01DX001 (ip), vehicle: saline 107 % of control | [8] 103 % of control | [1] 95 % of control | dose: 100.0 mg/kg/injection, schedule: Q01DX009 (ip), vehicle: saline 100 % of control and 101 % of control | [2] 102 % of control | dose: 200.0 mg/kg/injection, schedule: Q01DX009 (ip), vehicle: saline 105 % of control | [3] 101 % of control | dose: 400.0 mg/kg/injection, schedule: Q01DX009 (ip), vehicle: saline 100 % of control

CC(C)(C)C(=O)CN1C(=O)c2ccccc2C1=O
inactive: [4] 108 % of control | [9] 96 % of control and 97 % of control | [10] 101 % of control and 103 % of control | [11] 101 % of control | [5] 112 % of control | [12] 96 % of control and 104 % of control | [13] 98 % of control and 103 % of control | [14] 95 % of control | [6] 118 % of control | [15] 97 % of control and 108 % of control | [16] 103 % of control and 109 % of control | [17] 103 % of control

COc1ccc(F)cc1CC(N)=O
inactive: [10] 101 % of control | [13] 97 % of control | [16] 104 % of control

CCCCCCCCCCCCCCCCSc1ccc(C)cc1
inactive: [18] 88 % of control | [11] 89 % of control | dose: 200.0 mg/kg/injection, schedule: Q01DX009 (ip), vehicle: other 88 % of control | [14] 93 % of control | dose: 400.0 mg/kg/injection, schedule: Q01DX009 (ip), vehicle: other 112 % of control | [17] 96 % of control

O=C1c2ccccc2C(=O)N1Cc1cccc(CBr)c1
inactive: dose: 50.0 mg/kg/injection, schedule: Q01DX001 (ip), vehicle: Klucel (hydroxypropylcellulose) (HPC) 105 % of control | [4] 92 % of control | [5] 91 % of control

Cc1cc(C(C)C)cc(C(C)C)c1
inactive: [9] 96 % of control | [11] 94 % of control | [12] 95 % of control | [14] 102 % of control | [17] 94 % of control

O=C(O)/C=C/Sc1ccccc1
inactive: dose: 25.0 mg/kg/injection, schedule: Q04DX003 (ip), vehicle: Klucel (hydroxypropylcellulose) (HPC) 104 % of control | dose: 50.0 mg/kg/injection, schedule: Q04DX003 (ip), vehicle: Klucel (hydroxypropylcellulose) (HPC) 102 % of control

Oc1ccc(-c2nnc(-c3ccccc3)nn2)cc1
inactive: dose: 100.0 mg/kg/injection, schedule: Q04DX003 (ip), vehicle: gum acacia 104 % of control | dose: 200.0 mg/kg/injection, schedule: Q04DX003 (ip), vehicle: gum acacia 95 % of control | dose: 400.0 mg/kg/injection, schedule: Q04DX003 (ip), vehicle: gum acacia 95 % of control

CC(C=O)C=O
inactive: [4] 91 % of control | [5] 88 % of control | [6] 89 % of control

CC(CNC(=O)OCc1ccccc1)C(=O)O (configuration not stated)
inactive: [19] 95 % of control | [20] 105 % of control and 117 % of control | [21] 103 % of control | dose: 100.0 mg/kg/injection, schedule: Q04DX003 (ip), vehicle: saline with Tween-80 96 % of control | [22] 93 % of control | [23] 105 % of control and 86 % of control | [24] 100 % of control | dose: 200.0 mg/kg/injection, schedule: Q04DX003 (ip), vehicle: saline with Tween-80 91 % of control | [25] 96 % of control | [26] 94 % of control and 105 % of control | [27] 110 % of control | dose: 400.0 mg/kg/injection, schedule: Q04DX003 (ip), vehicle: saline with Tween-80 95 % of control

CN(N=O)P(=O)(Nc1ccccc1)Nc1ccccc1
inactive: [7] 111 % of control | [8] 117 % of control | dose: 66.0 mg/kg/injection, schedule: Q01DX009 (ip), vehicle: other 103 % of control | [18] 100 % of control | dose: 100.0 mg/kg/injection, schedule: Q04DX003 (ip), vehicle: saline sonified 122 % of control | dose: 150.0 mg/kg/injection, schedule: Q01DX009 (ip), vehicle: other 88 % of control

O=c1[nH]ncn1-c1ccccc1
inactive: [11] 96 % of control | [14] 92 % of control | [17] 91 % of control

CNC(=O)N(C1CCCCC1)C1CCCCC1
inactive: [19] 109 % of control | [20] 94 % of control and 111 % of control | [21] 105 % of control and 108 % of control | [22] 109 % of control | [23] 86 % of control and 91 % of control | [24] 92 % of control and 108 % of control | [25] 108 % of control | [26] 101 % of control and 91 % of control | [27] 96 % of control and 108 % of control

COc1cc([N+](=O)[O-])c(C=O)cc1O
inactive: dose: 100.0 mg/kg/injection, schedule: Q01DX009 (ip), vehicle: acetone 97 % of control | dose: 200.0 mg/kg/injection, schedule: Q01DX009 (ip), vehicle: acetone 100 % of control | dose: 400.0 mg/kg/injection, schedule: Q01DX009 (ip), vehicle: acetone 100 % of control

CN(C(=O)c1n[nH]c2ccccc12)c1ccccc1
inactive: dose: 50.0 mg/kg/injection, schedule: Q04DX002 (ip), vehicle: Klucel (hydroxypropylcellulose) (HPC) 101 % of control | [10] 108 % of control | [13] 101 % of control

COc1cc(NS(=O)(=O)c2ccc(C(C)=O)cc2)nc(OC)n1
inactive: [9] 94 % of control | [12] 102 % of control | [15] 98 % of control

O=S(=O)(C(Cl)(Cl)Cl)C(Cl)(Cl)Cl
inactive: dose: 25.0 mg/kg/injection, schedule: Q01DX009 (ip), vehicle: Klucel (hydroxypropylcellulose) (HPC) 95 % of control | dose: 50.0 mg/kg/injection, schedule: Q01DX009 (ip), vehicle: Klucel (hydroxypropylcellulose) (HPC) 98 % of control | [9] 93 % of control

C[N+](C)(CCCCCCCCCC[N+](C)(C)Cc1ccccc1)Cc1ccccc1
inactive: dose: 1.5 mg/kg/injection, schedule: Q01DX009 (ip), vehicle: saline 106 % of control | dose: 1.5 mg/kg/injection, schedule: Q04DX003 (ip), vehicle: saline 95 % of control | dose: 3.0 mg/kg/injection, schedule: Q01DX009 (ip), vehicle: saline 101 % of control | dose: 3.0 mg/kg/injection, schedule: Q04DX003 (ip), vehicle: saline 97 % of control | dose: 6.0 mg/kg/injection, schedule: Q01DX009 (ip), vehicle: saline 93 % of control | dose: 6.0 mg/kg/injection, schedule: Q04DX003 (ip), vehicle: saline 95 % of control
